Results: PubChem BioAssay AID330 (DTP/NCI, 2004)
Several values for one entry are separate records, joined by “and”; a condition that tells them apart may be missing. Identical values can stand only once. Inconclusive results and toxic doses are left out. How the source made its calls: active means survival T/C of 150% or more; inactive means T/C below 125% in these data.

Tested on: P388 leukemia ip, CD2F1 mice, survival T/C
Assay: NCI In Vivo Anticancer Drug Screen. Data for tumor model P388 Leukemia (intraperitoneal) in CD2F1 (CDF1) mice
Conditions: endpoint: median survival time, higher = longer survival
Summary of the method: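 Mice carrying the transplanted tumor received test compound or vehicle. Survival was recorded in each group, and the value is the treated-group measurement divided by that of the vehicle-treated control group.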

[1] = dose: 6.25 mg/kg/injection, schedule: Q01DX009 (ip), vehicle: other
[2] = dose: 12.5 mg/kg/injection, schedule: Q01DX009 (ip), vehicle: other
[3] = dose: 25.0 mg/kg/injection, schedule: Q01DX009 (ip), vehicle: other
[4] = dose: 50.0 mg/kg/injection, schedule: Q01DX009 (ip), vehicle: other
[5] = dose: 100.0 mg/kg/injection, schedule: Q04DX003 (ip), vehicle: saline with Tween-80
[6] = dose: 200.0 mg/kg/injection, schedule: Q04DX003 (ip), vehicle: saline with Tween-80
[7] = dose: 400.0 mg/kg/injection, schedule: Q04DX003 (ip), vehicle: saline with Tween-80
[8] = dose: 50.0 mg/kg/injection, schedule: Q01DX009 (ip), vehicle: Klucel (hydroxypropylcellulose) (HPC)
[9] = dose: 100.0 mg/kg/injection, schedule: Q01DX009 (ip), vehicle: Klucel (hydroxypropylcellulose) (HPC)
[10] = dose: 200.0 mg/kg/injection, schedule: Q01DX009 (ip), vehicle: Klucel (hydroxypropylcellulose) (HPC)
[11] = dose: 60.0 mg/kg/injection, schedule: Q01DX005 (ip), vehicle: saline with Tween-80
[12] = dose: 120.0 mg/kg/injection, schedule: Q01DX005 (ip), vehicle: saline with Tween-80
[13] = dose: 240.0 mg/kg/injection, schedule: Q01DX005 (ip), vehicle: saline with Tween-80
[14] = dose: 50.0 mg/kg/injection, schedule: Q01DX009 (ip), vehicle: saline
[15] = dose: 100.0 mg/kg/injection, schedule: Q01DX009 (ip), vehicle: saline
[16] = dose: 200.0 mg/kg/injection, schedule: Q01DX009 (ip), vehicle: saline
[17] = dose: 25.0 mg/kg/injection, schedule: Q01DX005 (ip), vehicle: saline with Tween-80
[18] = dose: 50.0 mg/kg/injection, schedule: Q01DX005 (ip), vehicle: saline with Tween-80
[19] = dose: 100.0 mg/kg/injection, schedule: Q01DX005 (ip), vehicle: saline with Tween-80
[20] = dose: 12.5 mg/kg/injection, schedule: Q01DX005 (ip), vehicle: saline
[21] = dose: 25.0 mg/kg/injection, schedule: Q01DX005 (ip), vehicle: saline

Measured: T/C

COc1ccc(-c2c(C)c(C)nc(Cl)c2C#N)c(OCc2ccccc2)c1OC
inactive: dose: 0.05 mg/kg/injection, schedule: Q01DX009 (ip), vehicle: water 100 % of control | dose: 0.1 mg/kg/injection, schedule: Q01DX009 (ip), vehicle: water 104 % of control | dose: 0.2 mg/kg/injection, schedule: Q01DX009 (ip), vehicle: water 104 % of control | dose: 0.4 mg/kg/injection, schedule: Q01DX009 (ip), vehicle: other 96 % of control | dose: 0.4 mg/kg/injection, schedule: Q01DX009 (ip), vehicle: water 99 % of control | dose: 0.8 mg/kg/injection, schedule: Q01DX009 (ip), vehicle: other 97 % of control | dose: 1.6 mg/kg/injection, schedule: Q01DX009 (ip), vehicle: other 94 % of control | dose: 3.2 mg/kg/injection, schedule: Q01DX009 (ip), vehicle: other 100 % of control | [1] 110 % of control | dose: 6.4 mg/kg/injection, schedule: Q01DX009 (ip), vehicle: other 102 % of control | [2] 108 % of control | [3] 104 % of control | [4] 103 % of control | dose: 100.0 mg/kg/injection, schedule: Q01DX009 (ip), vehicle: other 111 % of control | dose: 200.0 mg/kg/injection, schedule: Q01DX009 (ip), vehicle: other 102 % of control | dose: 400.0 mg/kg/injection, schedule: Q01DX009 (ip), vehicle: other 105 % of control

CC1=CCC2(C)C(=O)CC3(C)C(CCC4C5(C)CCC(=O)C(C)(C)C5CCC43C)C2C1C (centres undefined)
inactive: dose: 1.75 mg/kg/injection, schedule: Q01DX009 (ip), vehicle: saline 103 % of control and 121 % of control | dose: 3.5 mg/kg/injection, schedule: Q01DX009 (ip), vehicle: saline 99 % of control and 114 % of control | dose: 7.0 mg/kg/injection, schedule: Q01DX009 (ip), vehicle: saline 110 % of control and 118 % of control

OC(CNC1CCCCC1)CO/N=C1\CCSc2c(Cl)cccc21 (centres undefined)
inactive: dose: 3.12 mg/kg/injection, schedule: Q04DX002 (ip), vehicle: Klucel (hydroxypropylcellulose) (HPC) 94 % of control | dose: 6.25 mg/kg/injection, schedule: Q04DX002 (ip), vehicle: Klucel (hydroxypropylcellulose) (HPC) 99 % of control | dose: 12.5 mg/kg/injection, schedule: Q04DX002 (ip), vehicle: Klucel (hydroxypropylcellulose) (HPC) 103 % of control | dose: 25.0 mg/kg/injection, schedule: Q04DX002 (ip), vehicle: Klucel (hydroxypropylcellulose) (HPC) 100 % of control | dose: 100.0 mg/kg/injection, schedule: Q04DX002 (ip), vehicle: Klucel (hydroxypropylcellulose) (HPC) 96 % of control | dose: 200.0 mg/kg/injection, schedule: Q04DX002 (ip), vehicle: Klucel (hydroxypropylcellulose) (HPC) 87 % of control

CCCCNc1nc(SC)nc2nc[nH]c12
inactive: dose: 50.0 mg/kg/injection, schedule: Q04DX003 (ip), vehicle: saline with Tween-80 100 % of control | [5] 98 % of control | [6] 96 % of control | [7] 95 % of control

Cc1cc(Br)c2c(c1)C(C(F)(F)F)(C(F)(F)F)OC(C)(C)N2
inactive: [8] 94 % of control | [9] 100 % of control | [10] 101 % of control

N#CC(OC(OC(C#N)c1ccccc1)c1ccccc1)c1ccccc1 (centres undefined)
inactive: [11] 98 % of control | [12] 94 % of control | [13] 89 % of control

CC1CCC(O)C23OC4C(OC(C)(C)C4C12C)C3=O (centres undefined) (tested in a mixture with another compound)
inactive: [14] 96 % of control | [15] 89 % of control | [16] 94 % of control

CC(CN1CCCCC1)C(=O)c1ccc(-c2ccccc2)cc1 (centres undefined)
inactive: dose: 25.0 mg/kg/injection, schedule: Q01DX009 (ip), vehicle: saline with Tween-80 100 % of control | dose: 50.0 mg/kg/injection, schedule: Q01DX009 (ip), vehicle: saline with Tween-80 105 % of control | dose: 100.0 mg/kg/injection, schedule: Q01DX009 (ip), vehicle: saline with Tween-80 100 % of control

CC(CN(C)C)C(/C=C/c1ccccc1)=N\Nc1ccccc1 (centres undefined)
inactive: dose: 15.0 mg/kg/injection, schedule: Q01DX005 (ip), vehicle: saline 98 % of control | dose: 30.0 mg/kg/injection, schedule: Q01DX005 (ip), vehicle: saline 103 % of control | dose: 60.0 mg/kg/injection, schedule: Q01DX005 (ip), vehicle: saline 99 % of control and 107 % of control

CS1(=O)=NC(=N)c2ccccc21 (centres undefined)
inactive: [14] 102 % of control | [15] 107 % of control

COC(=O)C1=C(C(=O)OC)NC2=C(C=N1)CCC2
inactive: [11] 102 % of control | [12] 94 % of control | [13] 91 % of control

CCn1c(=O)c(Cl)c2n(CC)c3ccccc3n2c1=O
inactive: [11] 97 % of control | [12] 89 % of control | [13] 87 % of control

COC(=O)CCC(C)(c1ccc(O)cc1)c1ccc(O)cc1
inactive: [5] 104 % of control | [6] 90 % of control | [7] 90 % of control

COc1ccc2nc(N/N=C/c3ccccn3)cc(C)c2c1
inactive: [17] 103 % of control | [18] 110 % of control and 112 % of control | [19] 103 % of control

Cc1nc2ccccc2c2nnc(SCC(=O)N(Cc3ccccc3)c3ccccc3)n12
inactive: dose: 50.0 mg/kg/injection, schedule: Q01DX005 (ip), vehicle: Klucel (hydroxypropylcellulose) (HPC) 99 % of control | dose: 100.0 mg/kg/injection, schedule: Q01DX005 (ip), vehicle: Klucel (hydroxypropylcellulose) (HPC) 100 % of control | dose: 200.0 mg/kg/injection, schedule: Q01DX005 (ip), vehicle: Klucel (hydroxypropylcellulose) (HPC) 102 % of control

O=C(N=Nc1c(Cl)c(O)c2ccccc2c1O)C(F)(F)F
inactive: dose: 1.56 mg/kg/injection, schedule: Q01DX009 (ip), vehicle: saline with Tween-80 101 % of control | dose: 3.13 mg/kg/injection, schedule: Q01DX009 (ip), vehicle: saline with Tween-80 110 % of control | dose: 6.25 mg/kg/injection, schedule: Q01DX009 (ip), vehicle: saline with Tween-80 115 % of control

CCCCN(CCCC)C(=N)c1c2ccccc2nc2ccccc12
inactive: dose: 6.25 mg/kg/injection, schedule: Q01DX005 (ip), vehicle: saline 90 % of control | [20] 97 % of control | [21] 103 % of control

COC(=O)C(CSC(c1ccccc1)(c1ccccc1)c1ccccc1)NC(=O)CCNC(=O)OCc1ccccc1 (centres undefined)
inactive: [1] 103 % of control | [2] 97 % of control | [3] 94 % of control | [4] 88 % of control

CCOP(=O)(CC1OCC2(CO1)COC(CP(=O)(OCC)OCC)OC2)OCC (centres undefined)
inactive: dose: 12.5 mg/kg/injection, schedule: Q01DX009 (ip), vehicle: saline 87 % of control | dose: 25.0 mg/kg/injection, schedule: Q01DX009 (ip), vehicle: saline 94 % of control | [14] 101 % of control and 92 % of control | [15] 106 % of control | [16] 100 % of control

Cc1cc(N/N=C/c2ccccn2)nc2ccccc12
inactive: dose: 12.5 mg/kg/injection, schedule: Q01DX005 (ip), vehicle: Klucel (hydroxypropylcellulose) (HPC) 101 % of control | dose: 25.0 mg/kg/injection, schedule: Q01DX005 (ip), vehicle: Klucel (hydroxypropylcellulose) (HPC) 112 % of control

O=C(CCCl)Nc1cccc(/C=C/C(=O)c2ccccc2NC(=O)CCCl)c1
inactive: [11] 99 % of control | [12] 99 % of control | [13] 93 % of control

CCSc1nc2ccc(CN3C(=O)c4ccccc4C3=O)cc2s1
inactive: [8] 92 % of control | [9] 89 % of control | [10] 86 % of control

CC1=CC(C)(C)N=C(N)N1
inactive: [20] 98 % of control | [21] 97 % of control | dose: 50.0 mg/kg/injection, schedule: Q01DX005 (ip), vehicle: saline 105 % of control and 91 % of control

C/C=C(/CN/C(=C\[N+](=O)[O-])c1ccccc1)c1ccccc1
inactive: [11] 102 % of control | [12] 100 % of control | [13] 95 % of control

CCCCCCCN(CCCCCCC)CCCC(O)c1cccc2ccccc12 (centres undefined)
inactive: dose: 12.5 mg/kg/injection, schedule: Q01DX005 (ip), vehicle: saline with Tween-80 104 % of control | [17] 107 % of control | [18] 103 % of control | [19] 107 % of control
